In brackets after ≈: the same amount, converted by molar mass.
Experiments:
[1] = molecular target: T1, Nuclear hormone receptor isoform A (Strongyloides stercoralis, UniProt A0A0K0EQJ4); assay: Antagonist activity at GST-tagged Strongyloides stercoralis DAF-12 LBD incubated for 0.5 hrs in presence of biotinylated SRC1 and SRC2 by Alphascreen assay
T1 sequence (A0A0K0EQJ4 whole entry): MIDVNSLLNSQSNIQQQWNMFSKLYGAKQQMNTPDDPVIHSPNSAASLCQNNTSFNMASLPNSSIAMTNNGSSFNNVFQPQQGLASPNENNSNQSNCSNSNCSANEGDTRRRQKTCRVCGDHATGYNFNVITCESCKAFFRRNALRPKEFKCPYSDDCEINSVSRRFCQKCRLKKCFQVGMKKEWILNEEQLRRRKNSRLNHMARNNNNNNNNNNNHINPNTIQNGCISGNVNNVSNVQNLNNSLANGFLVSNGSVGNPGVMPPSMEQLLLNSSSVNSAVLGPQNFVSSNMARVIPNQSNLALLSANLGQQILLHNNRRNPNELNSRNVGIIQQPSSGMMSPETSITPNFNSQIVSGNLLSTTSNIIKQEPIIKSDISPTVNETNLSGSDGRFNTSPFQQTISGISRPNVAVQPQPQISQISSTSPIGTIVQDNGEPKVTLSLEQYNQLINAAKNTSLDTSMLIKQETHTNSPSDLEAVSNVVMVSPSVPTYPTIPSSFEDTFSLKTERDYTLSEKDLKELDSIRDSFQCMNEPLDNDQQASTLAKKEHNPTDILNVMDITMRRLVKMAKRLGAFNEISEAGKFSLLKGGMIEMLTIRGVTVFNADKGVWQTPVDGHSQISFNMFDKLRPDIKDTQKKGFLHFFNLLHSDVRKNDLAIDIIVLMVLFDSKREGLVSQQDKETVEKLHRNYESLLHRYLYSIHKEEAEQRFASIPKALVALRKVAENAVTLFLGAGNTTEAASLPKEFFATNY

[2] = molecular target: T1, Nuclear hormone receptor isoform A; assay: Agonist activity at GST-tagged Strongyloides stercoralis DAF-12 LBD incubated for 0.5 hrs in presence of biotinylated SRC1 and SRC2 by Alphascreen assay
[3] = molecular target: T2, Nuclear hormone receptor isoform A (Strongyloides stercoralis) (UniProt A0A0K0EQJ4); assay: Agonist activity at GST-tagged Strongyloides stercoralis DAF-12 LBD incubated for 0.5 hrs in presence of biotinylated SRC1 and SRC2 by Alphascreen assay relative to control; details: filed as agonist
T2 sequence (whole entry): T1 sequence (A0A0K0EQJ4 whole entry)

[4] = molecular target: T2, Nuclear hormone receptor isoform A (Strongyloides stercoralis); assay: Partial agonist activity at GST-tagged Strongyloides stercoralis DAF-12 LBD incubated for 0.5 hrs in presence of biotinylated SRC1 and SRC2 by Alphascreen assay relative to control
[5] = molecular target: T1, Nuclear hormone receptor isoform A; assay: Partial agonist activity at GST-tagged Strongyloides stercoralis DAF-12 LBD incubated for 0.5 hrs in presence of biotinylated SRC1 and SRC2 by Alphascreen assay
[6] = Drug metabolism in human liver microsome assessed as (2S,6R)-6-((5S,10S,13R,17R)-3-hydroxy-10,13-dimethyl-2,3,4,5,6,9,10,11,12,13,14,15,16,17-tetradecahydro-1H-cyclopenta[a]phenanthren-17-yl)-2-methylheptanoic acid formation by measuring retention time incubated for 90 mins in presence of NADPH by LC-MS/MS analysis; assay type: ADME; details: microsomes, 1.5 h
[7] = molecular target: T1, Nuclear hormone receptor isoform A; assay: Agonist activity at Strongyloides stercoralis DAF-12 LBD transfected in CHO cells; assay type: cell-based
[8] = Kinetic solubility of compound at pH 7.4 by HPLC/MS analysis; assay type: physicochemical; details: buffer, read-out: Kinetic_solubility
[9] = Drug metabolism in human liver microsome incubated for 90 mins in presence of NADPH by LC-MS/MS analysis; assay type: ADME; details: microsomes, 1.5 h
[10] = Metabolic stability in human liver microsome assessed as parent compound remaining measured for 30 mins by LC-MS analysis; assay type: ADME; details: human liver microsomes, read-out: Stability
[11] = Metabolic stability in human liver microsome assessed as half life measured for 30 mins by LC-MS analysis; assay type: ADME; details: human liver microsomes
HepG2 = assay: Cytotoxicity against human HepG2 cells assessed as reduction in cell viability incubated for 4 hrs by celltiter glo assay; assay type: toxicity, cell-based; details: hepg2, 4 h

C[C@H](CCc1nnn(C)n1)[C@H]1CC[C@H]2C3=CC[C@H]4CC(=O)CC[C@]4(C)C3CC[C@]12C (stereo partly specified)
IC50 [1]: 10 µM | EC50 [2]: > 100 µM

C[C@H](CCC[C@H](C)C(=O)NS(=O)(=O)N(C)C)[C@H]1CC[C@H]2C3=CC[C@H]4CC(=O)CC[C@]4(C)C3CC[C@]12C (stereo partly specified)
Emax [3]: 95% | EC50 [2]: 0.65 µM

C[C@H](CO)CCC[C@@H](C)[C@H]1CC[C@H]2C3=CC[C@H]4CC(=O)CC[C@]4(C)C3CC[C@]12C (stereo partly specified)
Emax [4]: 36% | EC50 [5]: 1.02 µM

C[C@H](CCC[C@H](C)C(=O)NS(C)(=O)=O)[C@H]1CC[C@H]2C3=CC[C@H]4CC(=O)CC[C@]4(C)C3CC[C@]12C (stereo partly specified)
Emax [3]: 85% | Retention_time [6]: 7.28 min | EC50 [7]: 0.47 µM | EC50 [2]: 0.41 µM | solubility kinetic [8]: > 250 µM

CNC(=O)[C@@H](C)CCC[C@@H](C)[C@H]1CC[C@H]2C3=CC[C@H]4CC(=O)CC[C@]4(C)C3CC[C@]12C (stereo partly specified)
Emax [4]: 11% | EC50 [5]: 1.02 µM

C[C@@H](CCC[C@@H](C)[C@H]1CC[C@H]2C3=CC[C@H]4CC(=O)CC[C@]4(C)C3CC[C@]12C)COS(=O)(=O)O (stereo partly specified)
Emax [4]: 15% | EC50 [5]: 7.2 µM

C[C@H](CCc1nn[nH]n1)[C@H]1CC[C@H]2C3=CC[C@H]4CC(=O)CC[C@]4(C)C3CC[C@]12C (stereo partly specified)
IC50 [1]: 6.9 µM | EC50 [2]: > 100 µM

C[C@H](CCCc1nnn(C)n1)[C@H]1CC[C@H]2C3=CC[C@H]4CC(=O)CC[C@]4(C)C3CC[C@]12C (stereo partly specified)
IC50 [1]: 17.9 µM | EC50 [2]: > 100 µM

C[C@H](CCc1nnn(C(c2ccccc2)(c2ccccc2)c2ccccc2)n1)[C@H]1CC[C@H]2C3=CC[C@H]4CC(=O)CC[C@]4(C)C3CC[C@]12C (stereo partly specified)
IC50 [1]: 60 µM | EC50 [2]: > 100 µM

Cc1ccc(S(=O)(=O)NC(=O)[C@@H](C)CCC[C@@H](C)[C@H]2CC[C@H]3C4=CC[C@H]5CC(=O)CC[C@]5(C)C4CC[C@]23C)cc1 (stereo partly specified)
Emax [3]: 40% | EC50 [2]: 4.7 µM

C[C@H](CCc1nnn(C(C)(C)C)n1)[C@H]1CC[C@H]2C3=CC[C@H]4CC(=O)CC[C@]4(C)C3CC[C@]12C (stereo partly specified)
IC50 [1]: 7.8 µM | EC50 [2]: > 100 µM

C[C@H](CCC[C@H](C)C(=O)O)[C@H]1CC[C@H]2C3=CC[C@H]4CC(=O)CC[C@]4(C)C3CC[C@]12C (stereo partly specified)
Emax [3]: 100% | Retention_time [6]: 8.51 min | Drug metabolism [9]: Metabolite_Detected | EC50 [7]: 0.09 µM | EC50 [2]: 0.08 µM | solubility kinetic [8]: 4 µM (≈ 1.66 µg/mL) | remaining at 0.5 h [10]: 50% | half-life [11]: 17 min | Activity (HepG2): Non-Toxic

C[C@H](CCCC1=C(O)CCC1=O)[C@H]1CC[C@H]2C3=CC[C@H]4CC(=O)CC[C@]4(C)C3CC[C@]12C (stereo partly specified)
IC50 [1]: 16.8 µM | EC50 [2]: > 100 µM

Source: ChEMBL document CHEMBL5518214, “Discovery and Structure-Activity Relationships of Novel ssDAF-12 Receptor Modulators” (J Med Chem, 2024)
